{
  "source": "ChEMBL document CHEMBL5528083",
  "about": "“Discovery of a Novel Thienopyrimidine Compound as a Urate Transporter 1 and Glucose Transporter 9 Dual Inhibitor with Improved Efficacy and Favorable Druggability” (J Med Chem, 2024)",
  "key": {"[1]": {"molecular_target": "T1, Solute carrier family 2, facilitated glucose transporter member 9 (Mus musculus, UniProt Q3T9X0)", "T1 sequence (Q3T9X0 whole entry)": "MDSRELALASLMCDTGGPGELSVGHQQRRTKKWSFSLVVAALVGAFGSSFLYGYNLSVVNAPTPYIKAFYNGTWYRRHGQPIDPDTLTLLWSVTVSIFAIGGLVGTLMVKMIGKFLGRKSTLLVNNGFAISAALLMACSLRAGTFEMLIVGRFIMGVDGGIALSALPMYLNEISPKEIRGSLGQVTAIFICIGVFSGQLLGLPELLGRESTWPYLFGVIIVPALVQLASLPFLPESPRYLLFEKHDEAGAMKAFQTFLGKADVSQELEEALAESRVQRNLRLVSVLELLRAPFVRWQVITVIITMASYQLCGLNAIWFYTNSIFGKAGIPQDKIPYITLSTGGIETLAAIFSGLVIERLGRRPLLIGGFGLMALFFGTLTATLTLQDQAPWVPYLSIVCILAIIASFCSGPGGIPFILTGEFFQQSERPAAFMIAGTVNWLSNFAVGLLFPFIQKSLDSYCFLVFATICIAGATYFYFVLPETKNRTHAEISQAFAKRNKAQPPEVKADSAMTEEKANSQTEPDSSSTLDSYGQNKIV", "assay": "Inhibition of mouse EGFP-tagged GLUT9 expressed in HEK293T cells assessed as inhibition rate by measuring relative current by patch clamp electrophysiological analysis relative to control", "assay_type": "cell-based"}, "[2]": {"assay": "Subacute toxicity in Kunming male mouse assessed as change in body weight at 100 mg/kg, po administered every other day for 14 days", "assay_type": "organism-based", "details": "in vivo, 336 h, time 14 day"}, "Mus musculus [3]": {"species_on_record": "Mus musculus", "assay": "Reduction in serum uric acid level in chronic hyperuricemia state Kunming mouse model assessed as SUA level (reference value: 660.33 +/- 103.57 uM)", "assay_type": "functional"}, "Mus musculus [4]": {"species_on_record": "Mus musculus", "assay": "Reduction in serum uric acid level in acute hyperuricemia state Kunming mouse model assessed as SUA level", "assay_type": "functional"}, "[5]": {"molecular_target": "Xanthine dehydrogenase/oxidase (Bos taurus, UniProt P80457)", "sequence (P80457 whole entry)": "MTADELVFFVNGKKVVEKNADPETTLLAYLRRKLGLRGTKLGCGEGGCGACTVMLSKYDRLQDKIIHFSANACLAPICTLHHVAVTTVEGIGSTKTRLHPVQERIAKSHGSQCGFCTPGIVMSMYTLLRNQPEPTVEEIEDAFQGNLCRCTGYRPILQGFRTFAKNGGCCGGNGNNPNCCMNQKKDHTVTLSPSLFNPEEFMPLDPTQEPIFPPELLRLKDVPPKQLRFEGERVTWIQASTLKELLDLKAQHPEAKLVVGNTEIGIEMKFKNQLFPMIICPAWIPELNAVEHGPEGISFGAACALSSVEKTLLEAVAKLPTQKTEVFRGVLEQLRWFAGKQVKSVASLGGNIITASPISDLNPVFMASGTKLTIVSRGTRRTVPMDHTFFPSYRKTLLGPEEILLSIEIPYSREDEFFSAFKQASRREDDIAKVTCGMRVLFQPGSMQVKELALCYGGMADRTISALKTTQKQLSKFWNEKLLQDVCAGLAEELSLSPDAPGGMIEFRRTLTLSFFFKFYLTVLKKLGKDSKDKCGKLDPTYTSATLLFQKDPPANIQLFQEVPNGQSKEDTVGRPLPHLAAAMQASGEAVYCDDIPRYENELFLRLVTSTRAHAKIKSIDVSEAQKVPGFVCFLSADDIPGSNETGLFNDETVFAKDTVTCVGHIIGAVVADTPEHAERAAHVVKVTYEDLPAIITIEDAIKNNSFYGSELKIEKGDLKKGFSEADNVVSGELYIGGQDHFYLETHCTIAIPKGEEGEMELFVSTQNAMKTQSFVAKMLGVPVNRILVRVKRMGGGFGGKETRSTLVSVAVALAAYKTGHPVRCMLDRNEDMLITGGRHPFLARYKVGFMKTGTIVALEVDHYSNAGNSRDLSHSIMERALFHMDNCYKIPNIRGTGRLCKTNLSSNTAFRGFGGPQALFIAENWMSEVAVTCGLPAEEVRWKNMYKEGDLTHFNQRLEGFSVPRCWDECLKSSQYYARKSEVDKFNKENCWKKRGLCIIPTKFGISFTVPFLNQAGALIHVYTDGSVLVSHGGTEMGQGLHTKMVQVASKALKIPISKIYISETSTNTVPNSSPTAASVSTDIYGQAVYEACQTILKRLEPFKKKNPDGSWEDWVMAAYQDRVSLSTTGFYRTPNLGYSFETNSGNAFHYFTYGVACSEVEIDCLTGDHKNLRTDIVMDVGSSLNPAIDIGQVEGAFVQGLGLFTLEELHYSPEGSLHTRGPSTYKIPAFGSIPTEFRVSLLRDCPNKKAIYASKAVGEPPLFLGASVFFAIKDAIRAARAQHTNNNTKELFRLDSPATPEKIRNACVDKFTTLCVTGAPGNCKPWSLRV", "assay": "Inhibition of bovine XOD using xanthine as substrate assessed as inhibitory ratio at 10 uM by spectrophotometric analysis relative to control", "details": "cattle"}, "Mus musculus [6]": {"system": "Mus musculus", "assay": "Reduction in serum uric acid level in acute hyperuricemia state Kunming mouse model assessed as SUA level by measuring decrease ratio at 1 mg/kg, po relative to control", "assay_type": "functional", "parameters": "scale not given: the % may be the effect or the level left"}, "[7]": {"assay": "Half life in Sprague-Dawley rat at 2 mg/kg, po measured upto 24 hrs by LC-MS/MS-AR analysis", "assay_type": "ADME, organism-based", "details": "in vivo"}, "[8]": {"assay": "Clearance in Sprague-Dawley rat at 2 mg/kg, iv measured upto 24 hrs by LC-MS/MS-AR analysis", "assay_type": "ADME, organism-based", "details": "in vivo"}, "[9]": {"assay": "Toxicity in Kunming female mouse assessed as renal injury at 100 mg/kg, po administered every other day for 14 days by H and E staining based assay", "assay_type": "organism-based", "details": "in vivo, 336 h, time 14 day"}, "[10]": {"assay": "Acute toxicity in Kunming mouse assessed as convulsions at 250 to 1000 mg/kg, po administered as single dose monitored for 7 days", "assay_type": "organism-based", "details": "in vivo, 168 h, dose 250-1000 mg/kg, time 7 day"}, "[11]": {"molecular_target": "T2, Solute carrier family 22 member 12 (Homo sapiens, UniProt Q96S37)", "T2 sequence (Q96S37 whole entry)": "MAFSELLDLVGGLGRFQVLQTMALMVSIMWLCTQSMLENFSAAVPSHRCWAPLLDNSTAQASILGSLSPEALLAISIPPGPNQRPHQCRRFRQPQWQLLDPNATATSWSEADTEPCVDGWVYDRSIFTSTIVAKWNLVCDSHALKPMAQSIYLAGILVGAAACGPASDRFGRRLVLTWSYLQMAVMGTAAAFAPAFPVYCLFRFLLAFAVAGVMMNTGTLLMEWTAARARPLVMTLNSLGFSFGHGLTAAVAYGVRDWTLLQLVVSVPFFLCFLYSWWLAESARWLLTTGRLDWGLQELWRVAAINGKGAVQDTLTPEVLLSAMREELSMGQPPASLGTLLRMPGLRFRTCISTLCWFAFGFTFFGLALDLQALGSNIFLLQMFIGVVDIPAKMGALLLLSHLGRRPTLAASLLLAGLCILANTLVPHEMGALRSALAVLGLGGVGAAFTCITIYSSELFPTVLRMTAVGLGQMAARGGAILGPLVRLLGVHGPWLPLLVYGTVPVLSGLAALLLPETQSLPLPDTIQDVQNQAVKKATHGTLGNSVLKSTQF", "assay": "Inhibition of human URAT1 expressed in HEK293T cells using 14C- uric acid assessed as uric acid absorption by measuring intracellular liquid radiation value by liquid scintillation counting analysis", "assay_type": "cell-based"}, "[12]": {"assay": "Acute toxicity in Kunming mouse assessed as change in body weight at 250 to 1000 mg/kg, po administered as single dose monitored for 7 days", "assay_type": "organism-based", "details": "in vivo, 168 h, dose 250-1000 mg/kg, time 7 day"}, "[13]": {"assay": "Cmax in Sprague-Dawley rat at 2 mg/kg, iv measured upto 24 hrs by LC-MS/MS-AR analysis", "assay_type": "ADME, organism-based", "details": "in vivo"}, "[14]": {"assay": "AUC (0 to infinity) in Sprague-Dawley rat at 2 mg/kg, po measured upto 24 hrs by LC-MS/MS-AR analysis", "assay_type": "ADME, organism-based", "details": "in vivo"}, "Mus musculus [15]": {"system": "Mus musculus", "assay": "Reduction in serum uric acid level in acute hyperuricemia state Kunming mouse model assessed as SUA level at 0.25 mg/kg, po (reference value: 1037 +/- 106.59 uM)", "assay_type": "functional"}, "[16]": {"assay": "Toxicity in Kunming female mouse assessed as balloon like degeneration of liver at 100 mg/kg, po administered every other day for 14 days by H and E staining based assay", "assay_type": "organism-based", "details": "in vivo, 336 h, time 14 day"}, "[17]": {"assay": "Toxicity in Kunming female mouse assessed as pathological changes at 100 mg/kg, po administered every other day for 14 days by H and E staining based assay", "assay_type": "organism-based", "details": "in vivo, 336 h, time 14 day"}, "[18]": {"assay": "Acute toxicity in Kunming mouse assessed as fatality rate at 1000 mg/kg, po administered as single dose monitored for 7 days", "assay_type": "organism-based", "details": "in vivo, po, 1000 mg/kg, 168 h, time 7 day"}, "Mus musculus [19]": {"species_on_record": "Mus musculus", "assay": "Reduction in serum uric acid level in chronic hyperuricemia state Kunming mouse model assessed as SUA level by measuring decrease ratio relative to control", "assay_type": "functional", "parameters": "scale not given: the % may be the effect or the level left"}, "[20]": {"molecular_target": "T3, Solute carrier family 2, facilitated glucose transporter member 9 (Mus musculus) (UniProt Q3T9X0)", "T3 sequence (whole entry)": "T1 sequence (Q3T9X0 whole entry)", "assay": "Inhibition of mouse EGFP-tagged GLUT9 expressed in HEK293T cells assessed as inhibition rate by measuring relative current at 5 uM by patch clamp electrophysiological analysis relative to control", "assay_type": "cell-based", "parameters": "scale not given: the % may be the effect or the level left"}, "Mus musculus [21]": {"species_on_record": "Mus musculus", "assay": "Reduction in serum uric acid level in acute hyperuricemia state Kunming mouse model assessed as SUA level by measuring decrease ratio relative to control", "assay_type": "functional", "parameters": "concentration or dose not given beside the values"}, "Cytochrome P450 3A4": {"molecular_target": "Cytochrome P450 3A4 (Homo sapiens, UniProt P08684)", "sequence (P08684 whole entry)": "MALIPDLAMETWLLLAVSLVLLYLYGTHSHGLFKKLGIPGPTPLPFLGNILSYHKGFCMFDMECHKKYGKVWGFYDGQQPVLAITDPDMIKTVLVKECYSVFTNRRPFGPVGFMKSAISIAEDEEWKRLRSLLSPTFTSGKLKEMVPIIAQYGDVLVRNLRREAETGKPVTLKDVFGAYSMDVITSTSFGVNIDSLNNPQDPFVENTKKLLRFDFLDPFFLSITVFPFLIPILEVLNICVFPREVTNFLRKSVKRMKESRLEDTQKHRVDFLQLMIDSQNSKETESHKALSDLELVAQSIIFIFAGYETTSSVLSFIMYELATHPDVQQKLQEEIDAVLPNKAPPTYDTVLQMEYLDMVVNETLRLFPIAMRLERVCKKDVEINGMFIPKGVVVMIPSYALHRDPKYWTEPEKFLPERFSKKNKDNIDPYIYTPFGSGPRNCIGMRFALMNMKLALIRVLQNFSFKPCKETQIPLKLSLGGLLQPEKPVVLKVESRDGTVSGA", "assay": "Inhibition of CYP3A4 in human liver microsomes using midazolam measured after 40 mins incubation by LC-MS/MS analysis", "assay_type": "ADME, Microsome"}},
  "data": [
    {"smiles": "O=C(O)CCCSc1nc(Nc2ccc(C3CC3)c3ccccc23)c2sccc2n1", "values": [
      {"measurement": "IC50", "setting": "[1]", "value": 18.2, "unit": "µM"},
      {"measurement": "Activity", "setting": "[2]", "value": "Toxic"},
      {"measurement": "Activity", "setting": "Mus musculus [3]", "value": 241, "unit": "µM"},
      {"measurement": "Activity", "setting": "Mus musculus [4]", "value": 191.6, "unit": "µM"},
      {"measurement": "inhibition at 10 µM", "setting": "[5]", "value": 11.7, "unit": "%"},
      {"measurement": "Activity", "setting": "Mus musculus [6]", "value": 89.08, "unit": "%"},
      {"measurement": "half-life", "setting": "[7]", "value": 1.8, "unit": "h"},
      {"measurement": "clearance", "setting": "[8]", "value": 17, "unit": "mL/min/kg"},
      {"measurement": "Activity", "setting": "[9]", "value": "Toxic"},
      {"measurement": "Activity", "setting": "[10]", "value": "Non-Toxic"},
      {"measurement": "IC50", "setting": "[11]", "value": 2.01, "unit": "µM"},
      {"measurement": "Activity", "setting": "[12]", "value": "Toxic"},
      {"measurement": "Cmax", "setting": "[13]", "value": 6590, "unit": "ng/mL"},
      {"measurement": "AUC", "setting": "[14]", "value": 1929.1, "unit": "ng·h/mL"},
      {"measurement": "Activity", "setting": "Mus musculus [15]", "value": 945, "unit": "µM"},
      {"measurement": "Activity", "setting": "[16]", "value": "Non-Toxic"},
      {"measurement": "Activity", "setting": "[17]", "value": "Non-Toxic"},
      {"measurement": "Activity", "setting": "[18]", "value": "Non-Toxic"},
      {"measurement": "Activity", "setting": "Mus musculus [19]", "value": 76.33, "unit": "%"},
      {"measurement": "Activity", "setting": "[20]", "value": 69.7, "unit": "%"},
      {"measurement": "Activity", "setting": "Mus musculus [21]", "value": 93.2, "unit": "%"},
      {"measurement": "IC50", "setting": "Cytochrome P450 3A4", "value": "> 20", "unit": "µM"}
    ]}
  ]
}
